The text below walks through data of the METLIN SMRT retention time set (Domingo-Almenara et al. 2019).

This data set can be described thus: gradient 5% acetonitrile 3 min, to 50% in 2 min, to 85% in 15 min, held 3 min, 100 µL/min. The following applies: column: Zorbax Extend-C18 2.1 x 50 mm; eluents: water / acetonitrile, 0.1% formic acid. Put shortly:
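Retention time was recorded from adduct peaks, which were picked computationally and each inspected manually. Pure standards ran in mixtures of ~100 molecules on HPLC coupled to a quadrupole time-of-flight mass spectrometer, in positive and negative ionization mode, through a Zorbax Extend-C18 column (2.1 × 50 mm, 1.8 μm) at 100 μL/min. Eluents were water and acetonitrile, each with 0.1% formic acid.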
Molecule `Cc1nc(N2CCN(c3ccccn3)CC2)c2c(C)c(C(=O)Nc3ccc(F)cc3F)sc2n1` yielded an RP-LC retention time of 701 s.

In the case of `Cc1ccc(S(=O)(=O)N2CCC3(CC2)NCCN=C3NCc2cccc(F)c2)cc1`, the RP-LC retention time amounted to 718 s.

With `CCCOC(=O)C1=C(C)NC2=C(C(=O)C(C(=O)OC)C(C)C2)C1c1ccccc1OC` (stereo not drawn), the RP-LC retention time was determined as 906 s.

For the molecule `CCOC(=O)C1C(=O)C=C(c2ccc(OC)c(OC)c2)CC1c1cccc(OC)c1OC` (stereo not drawn), the RP-LC retention time was found to be 923 s.

Molecule `COc1ccc(-c2nc(-c3ccc4oc(-c5ccccc5)nc4c3)no2)cn1` yielded an RP-LC retention time of 1430 s.

For `Cc1ccsc1C(=O)NCC(=O)Nc1nc2ccccc2[nH]1`, the RP-LC retention time was determined as 613 s.

Molecule `O=C(Cn1c(=O)n(C2CC2)c(=O)c2nscc21)N1CCN(c2ccccc2F)CC1` registered an RP-LC retention time of 713 s.

Regarding `CCOC(=O)c1nc(Nc2ccc(CC)cc2)c2ccccc2n1`, the RP-LC retention time is 932 s.

`Cc1ccc(-c2cc(C(=O)N3CCN(C)CC3)[nH]n2)cc1C`: the RP-LC retention time worked out at 603 s.

Turning to `CCOc1ccccc1NC(=O)C1CCN(S(=O)(=O)c2ccc3c(c2)sc(=O)n3C)CC1`, the RP-LC retention time worked out at 931 s.

Take `Cc1cc(N2CCOCC2)n2nc(CN3CCN(c4cccc(Cl)c4)CC3)nc2n1`: the RP-LC retention time came to 656 s.

Molecule `Cc1nc2c(sc3nc(-c4ccccc4)ccc32)c(=O)n1CC(=O)Nc1ccc(F)cc1Cl` registered an RP-LC retention time of 1090 s.

`Clc1ccccc1-c1nc(N2CCCC2)c2ccccc2n1` showed an RP-LC retention time of 696 s.

`COc1ccc(N2CCN(c3ncccc3-c3nc(C)no3)CC2)cc1` gave an RP-LC retention time of 736 s.

In the case of `COc1ccccc1-c1nnc(-c2ccc(OC)c(S(=O)(=O)N3CCCCCC3)c2)o1`, the RP-LC retention time is 1010 s.

The molecule `Cc1cc(C)cc(OCC(=O)Nc2nc(-c3ccccc3)cs2)c1` had an RP-LC retention time of 1210 s.

Turning to `CN(C)CC(=O)N1CC(c2nc(-c3ccc(F)cc3)no2)C2(CCOCC2)C1` (stereo not drawn), the RP-LC retention time is 572 s.

Turning to `CN(C)C(=O)c1ccc2c(c1)nnn2CCNC(=O)Nc1cc(Cl)ccc1Cl`, the RP-LC retention time was found to be 719 s.

In the case of `CCC(C)n1c(=O)c2ccccc2n(Cc2nc(-c3ccc(Cl)cc3)no2)c1=O` (stereo not drawn), the RP-LC retention time is 1280 s.

In the case of `Cc1noc2nc(C)n(CC(=O)Nc3cccc(C(F)(F)F)c3)c(=O)c12`, the RP-LC retention time stood at 879 s.

The molecule `Cc1ccc(C)c(NC(=O)CN2C(=O)NC3(CCC(C)CC3)C2=O)c1` (stereo not drawn) registered an RP-LC retention time of 777 s.

Consider `CCOc1ccc(-c2nc(CNC(=O)Nc3ccccc3OCC)c(C)o2)cc1`, for which the RP-LC retention time stood at 1080 s.

`COCCc1noc(-c2cnc3nc(C)ccc3c2Nc2cccc(C)c2)n1` showed an RP-LC retention time of 728 s.

With `CCCC(=O)Nc1ccc2c(c1)nc(CN1CCN(S(C)(=O)=O)CC1)n2CC`, the RP-LC retention time was 608 s.

Consider `O=C1CCCN2N=C(SCc3ccc([N+](=O)[O-])cc3)SC2=N1`, for which the RP-LC retention time is 779 s.

Regarding `CCCC(NC(=O)C1CCCN(c2nc3c(s2)c(C)nn3-c2ccc(C)cc2)C1)c1cccs1` (stereo not drawn), the RP-LC retention time was 1300 s.

In the case of `O=C(c1nc2ccccc2nc1Cl)N1CCN(c2ccccn2)CC1`, the RP-LC retention time was determined as 597 s.

As for `COC(=O)c1sccc1NC(=O)Cn1c(C)cc(C)c(-c2nc(-c3cccc(Cl)c3)no2)c1=O`, the RP-LC retention time was determined as 1170 s.

`CCOc1ccccc1NC(=O)c1cn2c(n1)CCCC2`: the RP-LC retention time amounted to 657 s.

`O=C(NCc1ccco1)C1CCN(c2nc3ccccc3nc2C(F)(F)F)CC1` gave an RP-LC retention time of 1000 s.

In turn, `Cc1nnsc1C(=O)N1CCN(c2nc3ccc(OC(F)(F)F)cc3s2)CC1` came in with an RP-LC retention time of 903 s.

`Cc1ncc2c(n1)CCN(C(=O)c1c(F)cccc1Cl)C2`: the RP-LC retention time came to 663 s.

Take `COc1cc2c(C(=O)Oc3cccnc3)cn(-c3ccccc3)c(=O)c2cc1OC`: the RP-LC retention time is 836 s.

`CCOc1ccccc1NC(=O)CSc1nnc2c3cc(-c4ccc(F)cc4)nn3ccn12` gave an RP-LC retention time of 948 s.

In the case of `CCC(=O)N(C1CCOCC1)C1CCN(S(=O)(=O)c2ccc(Cl)cc2)CC1`, the RP-LC retention time stood at 886 s.

In the case of `COc1cc(OC)c(NC(=O)N2CCN(CCn3c(C(C)C)nc4cccnc43)CC2)cc1Cl`, the RP-LC retention time was 618 s.

Turning to `Cc1ccc(NC(=O)c2cccn2Cc2noc(C)n2)c(Cl)c1`, the RP-LC retention time was found to be 945 s.

Molecule `CC(C)c1noc(-c2ccnc(-n3cnc(C(=O)NCc4ccccc4)c3)c2)n1` returned an RP-LC retention time of 939 s.

The molecule `Nc1nc(Nc2ccc(F)cc2)nc2cccc(F)c12` had an RP-LC retention time of 627 s.

Consider `Cc1cc(N2CCN(C)CC2)nc2ccc(NC(=S)N(C)C3CCCCC3)cc12`, for which the RP-LC retention time came to 583 s.

Molecule `O=C(NCCCc1ccccc1)c1ccc2c(c1)CCN2C(=O)C1CC1` yielded an RP-LC retention time of 877 s.

Consider `COCCCNS(=O)(=O)c1ccccc1-c1nc(-c2ccc(F)cc2)no1`, for which the RP-LC retention time was 905 s.

For the molecule `CCCCC(=O)Nc1ccc2nc(N3CCN(CC)CC3)cc(C)c2c1`, the RP-LC retention time worked out at 579 s.

For the molecule `O=C(c1ccc([N+](=O)[O-])o1)N1CCN(Cc2nnnn2-c2ccc(F)cc2)CC1`, the RP-LC retention time was found to be 755 s.

As for `Cc1noc(-c2nn(C)c3c2CN(C(=O)COc2ccccc2)CC3)n1`, the RP-LC retention time is 729 s.

Consider `O=C(CCC(=O)N1CCNc2ccccc2C1)N1CCOCC1`, for which the RP-LC retention time was found to be 585 s.

The molecule `CCn1ccc2cc(S(=O)(=O)N3CCCC(C(=O)NCCCN4CCCCC4)C3)ccc21` (stereo not drawn) registered an RP-LC retention time of 676 s.

`COc1ccc(N2CC(c3noc(-c4cc(OC)c(OC)c(OC)c4)n3)CC2=O)cc1OC` (stereo not drawn) displayed an RP-LC retention time of 813 s.

Take `COc1cc(OC)cc(C(=O)Nc2cccc(C(C)=O)c2)c1`: the RP-LC retention time amounted to 753 s.

Turning to `Cc1nc2c(c(=O)n1CC(=O)NCCC1=CCCCC1)CCN(Cc1ccccc1)C2`, the RP-LC retention time came out at 666 s.

`CCCN1C(=O)NC2(CCN(C(=O)Nc3ccccc3C(F)(F)F)CC2)C1=O` yielded an RP-LC retention time of 705 s.

Turning to `CCc1ccc(CNC(=O)CC2CCN(C(=O)c3[nH]c(C)cc3C)CC2)cc1`, the RP-LC retention time came to 857 s.

In turn, `CCCn1cc(S(=O)(=O)Nc2cc(Cl)ccc2OC)c2cccnc21` had an RP-LC retention time of 995 s.

`O=C(NCc1cccnc1)NC1CC(=O)N(c2ccc(Cl)cc2)C1` (stereo not drawn) showed an RP-LC retention time of 546 s.

In the case of `O=C(CCc1nc(CSc2nc3ccccc3s2)no1)Nc1nc(-c2ccccc2)cs1`, the RP-LC retention time came out at 1090 s.

In turn, `Nc1nc(N2CCN(C3CCCCC3)CC2)ncc1C(=O)NCc1ccccc1` showed an RP-LC retention time of 627 s.

The molecule `Cc1ccc(C)c(-c2coc(-c3ccc(NC(=O)c4ccc(Br)o4)cc3)n2)c1` yielded an RP-LC retention time of 1310 s.

Take `CCc1nc2cc(-c3noc(CNC(=O)c4ccccc4)n3)ccc2o1`: the RP-LC retention time worked out at 821 s.

Molecule `Cc1ccc(C)c(NC(=O)C2CCN(S(=O)(=O)c3cc(C(=O)N(C)C)cs3)CC2)c1` showed an RP-LC retention time of 790 s.

Consider `CCN1CCCn2cc(S(=O)(=O)Nc3ccc(C)c(C)c3)cc2C1=O`, for which the RP-LC retention time was determined as 778 s.

In the case of `CC(C(=O)NCCN1CCN(C)CC1)n1c2ccccc2c2cnn(C)c(=O)c21` (stereo not drawn), the RP-LC retention time was determined as 572 s.

`CN1C(=O)C(=C2CCCC2)c2cc(S(=O)(=O)N3CCN(c4ccccn4)CC3)ccc21` had an RP-LC retention time of 710 s.

As to `C=C(C)CN1CC[C@]23c4c5ccc(O)c4O[C@H]2c2[nH]c4ccccc4c2C[C@@]3(O)C1C5`, the RP-LC retention time is 703 s.

`COc1cc(NC(=O)N2CCC3(CC2)Nc2ccccc2-n2cccc23)cc(OC)c1OC` had an RP-LC retention time of 920 s.

`Cc1ccc(NC(=O)N2CCC(CN3CCCC(C)C3)CC2)cc1C` (stereo not drawn): the RP-LC retention time is 645 s.

For the molecule `CCOC(=O)CCC(=O)N1CC(c2nc(C)no2)C1`, the RP-LC retention time amounted to 603 s.

`Cc1ccc(-n2c(=O)c3c(cc(C)n3C)n(CC(=O)Nc3ccccc3F)c2=O)cc1` registered an RP-LC retention time of 841 s.

As to `CNC(=O)c1ccc(-c2nc3cc(NS(=O)(=O)c4ccc(C(C)C)cc4)ccc3n2C)cc1`, the RP-LC retention time worked out at 713 s.

`Cc1ccc(NS(=O)(=O)c2cc(-c3[nH]ncc3C(=O)N(C)C)oc2C)cc1Cl` gave an RP-LC retention time of 730 s.

Regarding `COc1ccc(NC(=O)Cn2c(N)nc(C)c(C)c2=O)cc1`, the RP-LC retention time is 595 s.

In the case of `CCOC(=O)c1csc(NC(=O)Nc2cccc(Cl)c2)n1`, the RP-LC retention time came out at 867 s.

`COCCNC(=O)CN1CCN(c2cc(C(=O)O)c3cc(NC(=O)c4ccccc4)ccc3n2)CC1` displayed an RP-LC retention time of 592 s.

`COc1ccc(NC(=O)N2CCN(Cc3nc4ccccc4o3)CC2)cc1` showed an RP-LC retention time of 642 s.

`COc1ccc(C(=O)N2C(C(=O)NC(C)C)COC23CCN(C(=O)CC(C)(C)C)CC3)cc1` (stereo not drawn) yielded an RP-LC retention time of 713 s.

As for `O=C(CNC(=O)Cc1ccc(Cl)cc1)NCC(=O)N1CCCc2ccccc21`, the RP-LC retention time is 770 s.

In the case of `CCN1CCCC1CNC(=O)C1CCN(S(=O)(=O)c2ccc(-c3noc(C4CC4)n3)cc2)CC1` (stereo not drawn), the RP-LC retention time came out at 679 s.

`CC(=O)Nc1ccc(NC(=O)C2CCCN(c3nc4ccccc4nc3C(F)(F)F)C2)cc1` (stereo not drawn) yielded an RP-LC retention time of 910 s.

In turn, `O=S(=O)(c1ccccc1)N1CCC(c2nc(CCOCC3CC3)no2)C1` (stereo not drawn) came in with an RP-LC retention time of 896 s.
